In US8987201B2, “Black bear parathyroid hormone and methods of using black bear parathyroid hormone” (Michigan Technological University, priority 2009, dated 2015):
Entries after “also recorded” stand apart in the source; their conditions may differ.

Key:
Male Swiss-Webster mice [1] = experiment: Trabecular bone structure and mineralization in the proximal tibia (micro-computed tomography); type: in vivo, mouse; settings: PTH 1-34 study: 11 wk old mice, 8 weeks, proximal tibia, normalized by body mass
Text: (§1) All handling procedures and experiments were approved by the Michigan Technological University Institutional Animal Care and Use Committees. Male Swiss-Webster mice were obtained from a commercial breeder (Harlan, Indianapolis, Ind.). All animals were maintained on a 12-h light/12-h dark cycle, and were permitted free access to water and food containing 0.95% calcium (Purina Rodent Diet #5001).
(§2) In the first experiment, 11 wk old mice received daily (5 days/week) subcutaneous injections of 2.5 nmol/kg PTH 1-34 (hPTH 1-34 or bbPTH 1-34) or acidic saline vehicle (0.15 M NaCl+0.001 N HCl) for 8 weeks (n=10 mice/group). In the second experiment, 12 wk old mice received daily (5 days/week) subcutaneous injections of 2.5 nmol/kg PTH 1-84 (hPTH 1-84 or bbPTH 1-84) or acidic saline vehicle for 8 weeks (n=10 mice/group). All PTH- and vehicle-treated animals received subcutaneous injections of calcein at a dosage of 10 mg/kg on days 12 and 3 before death to label mineralizing bone surfaces. Twenty-four hours following the last treatment injection, mice were sacrificed by carbon dioxide asphyxiation. Right femurs were fixed in 10% neutral buffered formalin. Left femurs were wrapped in 0.15M saline soaked gauze and stored at −20 deg C. Left tibias were stored in 70% ethanol at 4 deg C.
Trabecular bone architecture and mineralization were evaluated in the left proximal tibial metaphysis (0.7 mm distal to the growth plate) using micro-computed tomography. Tibias from experiment 1 were scanned on a μCT35 scanner (Scanco Medical AG, Basserdorf, Switzerland) at 3.5 μm (high) resolution. Tibias from experiment 2 were scanned on a μCT40 scanner (Scanco Medical AG, Basserdorf, Switzerland) at 7 μm (high) resolution. Bones were scanned in 70% ethanol. Trabecular bone volume fraction (BV/TV, %), trabecular number (Tb.N, mm^−1), trabecular thickness (Tb.Th, m), trabecular separation (Tb.Sp, m), trabecular apparent mineral density (App.Mn.Dn, mgHA/cm^3) and trabecular tissue mineral density (Mat.Mn.Dn, mgHA/cm^3) were computed using the manufacturer's software.
(§3) All bone geometrical, architectural, and mineral properties were normalized by body mass to account for potential variation in animal size (31-33). Trabecular bone properties quantified by micro-computed tomography were compared by ANOVA between vehicle, bear, and human PTH-treated mice within each study (PTH 1-34 or PTH 1-84). The microCT parameters were not directly compared between the PTH 1-34 and PTH 1-84 studies because analyses were conducted on different microCT machines. For all other bone properties, all six experimental groups (from both the PTH 1-34 and PTH 1-84 studies) were compared with ANOVA and Fisher's PLSD. A significance of p<0.05 was used for all comparisons.

Male Swiss-Webster mice [2] = experiment: Cortical bone dynamic histomorphometry in the femur (calcein labels); type: in vivo, mouse; settings: femoral midshaft, 2.5 nmol/kg s.c., 8 weeks, SD in parentheses
Text: as §1, §2
Following the bending test, the left femoral diaphyses were ashed in a furnace to determine mineral content (ash fraction). Right femoral diaphyses were embedded in methyl methacrylate and sectioned with a diamond saw to expose the midshaft cross-section. Images of the midshaft cross-sections were captured using a digital camera (Spot Insight QE, Diagnostic Instruments Inc., Sterling Heights, Mich.), and Scion Image analysis software (Scion Corporation, Frederick, Md.) was used to calculate the periosteal area (Ps.Ar), cortical area (Ct.Ar), and endosteal area (Es.Ar) for each sample. Cortical bone thickness (Ct.Th) was calculated in 0.1 mm increments for each anatomical quadrant and for the entire cross-section using image analysis software (Bioquant Osteo, Nashville, Tenn.). Thin sections from the midshaft of the right femur were ground to a thickness of 50 μm and mounted on glass slides. Images of calcein labels were captured at 100× magnification and periosteal and endosteal mineral apposition rates (Ps.MAR and Es.MAR, respectively) and mineralizing surfaces (Ps.MS/BS and Es.MS/MS) were quantified (Bioquant) for each femur.
as §3

procollagen-1 mRNA = settings: Nasu et al., 1998; cited from earlier work
rats = settings: Tashjian et al. 2008; cited from earlier work
MC-3T3 cells = experiment: Gene expression by real-time PCR in MC-3T3 cells (Example 11); type: cell-based; settings: 100 nM
Method: MC-3T3 cells were incubated in vehicle or 100 nM synthetic bear or human PTH 1-34 for 3 or 6 hours (n=2 or 4). Total RNA was isolated, and cDNA was generated with reverse transcription. Primers for the bone matrix proteins type I collagen and osteocalcin, the pro-apoptotic protein Bax, the anti-apoptotic protein Bcl-2, and the housekeeping genes Gapdh, β-actin, and cyclophillin were designed using PrimerQuest software (Integrated DNA Technologies, Coralville, Iowa). Real-time PCR was performed using the Mx3000P real-time PCR system (Stratagene, LaJolla, Calif.). All samples were measured in duplicate. Gene expression was determined using the relative standard curve method normalized to the geometric mean of the three housekeeping genes (Gapdh, β-actin, and cyclophillin). Apoptosis-related genes were analyzed as the expression ratio of Bax/Bcl-2, since a decrease in this ratio is associated with decreased apoptosis in vitro.

male mice = settings: Sakai et al. 1999, cited from earlier work

human PTH 1-34 [hPTH 1-34]
BV/TV (Male Swiss-Webster mice [1]; 2.5 nmol/kg s.c. daily 5 days/week): 1.35 %/kg
App. Mn. Dn (Male Swiss-Webster mice [1]; 2.5 nmol/kg s.c.): 1783 mgHA/(cm^3*kg)
Mat. Mn. Dn. (Male Swiss-Webster mice [1]; 2.5 nmol/kg s.c.): 31281 mgHA/(cm^3*kg)
Tb. N (Male Swiss-Webster mice [1]; 2.5 nmol/kg s.c.): 105.0 1/mm*kg
Tb. Sp (Male Swiss-Webster mice [1]; 2.5 nmol/kg s.c.): 9.57 mm/kg
Tb. Th (Male Swiss-Webster mice [1]; 2.5 nmol/kg s.c.): 1.05 mm/kg
Endosteal MAR (Male Swiss-Webster mice [2]): 0.56 (0.18)
Endosteal MS/BS (Male Swiss-Webster mice [2]): 39.3 (17.7)
Periosteal MAR (Male Swiss-Webster mice [2]): 0.53 (0.21)
Periosteal MS/BS (Male Swiss-Webster mice [2]): 24.0 (13.8)
production of procollagen-1 mRNA (procollagen-1 mRNA): down-regulates
dose shown to be carcinogenic in rats (rats): 5 µg/kg
expression ratio of Bax/Bcl-2 (MC-3T3 cells; 3 hours, n=4, bear vs human p=0.047): increases
expression of type I collagen compared to the vehicle control (MC-3T3 cells; 6 hours): did not affect
expression of osteocalcin compared to the vehicle control (MC-3T3 cells; 6 hours, n=2): substantially upregulated; also recorded: upregulate
trabecular thickness (Tb.Th) or mineral apposition rates (MAR) in the proximal tibia (male mice; daily injections of 1 nmol/kg for 6 weeks): did not affect
trabecular thickness (Tb.Th) and mineral apposition rates (MAR) in the proximal tibia (male mice; higher molar dosage (˜10 nmol/kg)): increased
